From patent publication US10975080B2, “Compounds and compositions for inhibiting the activity of SHP2” (NOVARTIS AG, priority 2015, dated 2021) come the findings set out here.

Molecules are shown by their SMILES.

Chain of SHP2 (Q06124 whole entry): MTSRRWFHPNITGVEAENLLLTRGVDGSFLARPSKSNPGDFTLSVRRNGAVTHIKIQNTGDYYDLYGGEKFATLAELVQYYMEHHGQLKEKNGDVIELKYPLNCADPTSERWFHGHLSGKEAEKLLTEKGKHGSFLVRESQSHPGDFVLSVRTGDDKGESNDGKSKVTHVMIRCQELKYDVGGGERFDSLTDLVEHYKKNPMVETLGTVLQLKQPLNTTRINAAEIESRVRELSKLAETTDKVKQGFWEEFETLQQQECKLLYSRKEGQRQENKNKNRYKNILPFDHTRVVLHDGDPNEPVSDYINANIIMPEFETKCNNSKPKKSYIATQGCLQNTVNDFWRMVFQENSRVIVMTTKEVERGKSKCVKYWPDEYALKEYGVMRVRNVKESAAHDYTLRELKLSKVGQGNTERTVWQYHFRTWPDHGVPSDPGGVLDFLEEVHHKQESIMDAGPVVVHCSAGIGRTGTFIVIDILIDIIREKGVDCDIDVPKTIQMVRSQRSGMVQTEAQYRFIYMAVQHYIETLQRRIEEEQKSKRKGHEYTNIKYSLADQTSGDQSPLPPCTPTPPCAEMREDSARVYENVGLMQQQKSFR

The first experiment addresses SHP2 (Homo sapiens (Human), UniProt Q06124). As to the kind of experiment: SHP2 Allosteric Inhibition Assay. Type of experiment: biochemical. The note with it: 0.5 nM SHP2 with 0.5 μM peptide IRS1_pY1172(dPEG8)pY1222; surrogate substrate DiFMUP; 25° C.; read-out: IC50. The source says: SHP2 Allosteric Inhibition Assay
SHP2 is allosterically activated through binding of bis-tyrosyl-phosphorylated peptides to its Src Homology 2 (SH2) domains. The latter activation step leads to the release of the auto-inhibitory interface of SHP2, which in turn renders the SHP2 protein tyrosine phosphatase (PTP) active and available for substrate recognition and reaction catalysis. The catalytic activity of SHP2 was monitored using the surrogate substrate DiFMUP in a prompt fluorescence assay format.
After 30-60 minutes incubation at 25° C., the surrogate substrate DiFMUP (Invitrogen, cat #D6567) was added to the reaction and incubated at 25° C. for 30 minutes. […] The inhibitor dose response curves were analyzed using normalized IC50 regression curve fitting with control based normalization.
As to `C[C@@H]1OCC2(CCN(c3nc4[nH]nc(Sc5ccnc(N)c5Cl)c4c(=O)n3C)CC2)[C@@H]1N` [Example 13, 3-((2-Amino-3-chloropyridin-4-yl)thio)-6-((3S,4S)-4-amino-3-methyl-2-oxa-8-azaspiro[4.5]decan-8-yl)-5-methyl-1,5-dihydro-4H-pyrazolo[3,4-d]pyrimidin-4-one], the IC50 (as a rule, the point on the concentration scale where inhibition reaches its midpoint) amounted to 27 nM.

The same experiment, now with this note: 0.5 nM SHP2 with 0.5 μM peptide IRS1_pY1172(dPEG8)pY1222; surrogate substrate DiFMUP; 25° C.; read-out: SHP2 IC50.
Take `Cn1c(N2CCC3(CC2)C[C@H](F)C[C@H]3N)nc2[nH]nc(-c3ccnc(NC4CC4)c3Cl)c2c1=O` [Example 38, 6-((1R,3S)-1-amino-3-fluoro-8-azaspiro[4.5]decan-8-yl)-3-(3-chloro-2-(cyclopropylamino)pyridin-4-yl)-5-methyl-1,5-dihydro-4H-pyrazolo[3,4-d]pyrimidin-4-one]: the IC50 turned out to be 11 nM. In the case of `C[C@@H]1OCC2(CCN(c3nc4[nH]nc(-c5cc(F)ccc5F)c4c(=O)n3C)CC2)[C@@H]1N` [Example 62, 6-((3S,4S)-4-amino-3-methyl-2-oxa-8-azaspiro[4.5]decan-8-yl)-3-(2,5-difluorophenyl)-5-methyl-1,5-dihydro-4H-pyrazolo[3,4-d]pyrimidin-4-one], the IC50 stood at 17 nM.

Turning to `C[C@H]1C[C@@H](N)C2(CCN(c3nc4[nH]nc(-c5ccnc(N(C)C)c5Cl)c4c(=O)n3C)CC2)C1` [Example 73, 6-((1R,3R)-1-amino-3-methyl-8-azaspiro[4.5]decan-8-yl)-3-(3-chloro-2-(dimethylamino)pyridin-4-yl)-5-methyl-1,5-dihydro-4H-pyrazolo[3,4-d]pyrimidin-4-one], the IC50 turned out to be 28 nM. With `C[C@@H]1OCC2(CCN(c3nc4[nH]nc(-c5cccc(F)c5F)c4c(=O)n3C)CC2)[C@@H]1N` [Example 60, 6-((3S,4S)-4-amino-3-methyl-2-oxa-8-azaspiro[4.5]decan-8-yl)-3-(2,3-difluorophenyl)-5-methyl-1,5-dihydro-4H-pyrazolo[3,4-d]pyrimidin-4-one], the IC50 was determined as 13 nM. For `COc1cccc(-c2n[nH]c3nc(N4CCC5(CC4)COC[C@H]5N)n(C)c(=O)c23)c1Cl` [Example 68, (S)-6-(4-amino-2-oxa-8-azaspiro[4.5]decan-8-yl)-3-(2-chloro-3-methoxyphenyl)-5-methyl-1,5-dihydro-4H-pyrazolo[3,4-d]pyrimidin-4-one], the IC50 was found to be 25 nM. Regarding `Cn1c(N2CCC3(CC2)COC[C@H]3N)nc2[nH]nc(-c3ccnc(Cl)c3Cl)c2c1=O` [Example 21, (S)-6-(4-amino-2-oxa-8-azaspiro[4.5]decan-8-yl)-3-(2,3-dichloropyridin-4-yl)-5-methyl-1,5-dihydro-4H-pyrazolo[3,4-d]pyrimidin-4-one], the IC50 worked out at 54 nM. Still for that read-out and setting: next, `C[C@@H]1OCC2(CCN(c3nc4[nH]nc(-c5ccnc(Br)c5)c4c(=O)n3C)CC2)[C@@H]1N` [Example 34, 6-((3S,4S)-4-amino-3-methyl-2-oxa-8-azaspiro[4.5]decan-8-yl)-3-(2-bromopyridin-4-yl)-5-methyl-1,5-dihydro-4H-pyrazolo[3,4-d]pyrimidin-4-one]: 27 nM; `C[C@@H]1OCC2(CCN(c3nc4[nH]nc(-c5ccc(F)c(F)c5)c4c(=O)n3C)CC2)[C@@H]1N` [Example 58, 6-((3S,4S)-4-amino-3-methyl-2-oxa-8-azaspiro[4.5]decan-8-yl)-3-(3,4-difluorophenyl)-5-methyl-1,5-dihydro-4H-pyrazolo[3,4-d]pyrimidin-4-one]: 11 nM; `C[C@@H]1OCC2(CCN(c3nc4[nH]nc(-c5ccnc(Cl)c5Br)c4c(=O)n3C)CC2)[C@@H]1N` [Example 33, 6-((3S,4S)-4-amino-3-methyl-2-oxa-8-azaspiro[4.5]decan-8-yl)-3-(3-bromo-2-chloropyridin-4-yl)-5-methyl-1,5-dihydro-4H-pyrazolo[3,4-d]pyrimidin-4-one]: 13 nM. Same read-out and setting: with `C[C@@H]1OCC2(CCN(c3nc4[nH]nc(-c5cccc(N)c5)c4c(=O)n3C)CC2)[C@@H]1N` [Example 55, 6-((3S,4S)-4-amino-3-methyl-2-oxa-8-azaspiro[4.5]decan-8-yl)-3-(3-aminophenyl)-5-methyl-1,5-dihydro-4H-pyrazolo[3,4-d]pyrimidin-4-one] the figure was 83 nM; with `C[C@@H]1OCC2(CCN(c3nc4[nH]nc(-c5cc(Cl)ncc5Cl)c4c(=O)n3C)CC2)[C@@H]1N` [Example 79, 6-((3S,4S)-4-amino-3-methyl-2-oxa-8-azaspiro[4.5]decan-8-yl)-3-(2,5-dichloropyridin-4-yl)-5-methyl-1,5-dihydro-4H-pyrazolo[3,4-d]pyrimidin-4-one], 30 nM; with `C[C@@H]1OCC2(CCN(c3nc4[nH]nc(-c5ccnc(N(C)C)c5Cl)c4c(=O)n3C)CC2)[C@@H]1N` [Example 71, 6-((3S,4S)-4-amino-3-methyl-2-oxa-8-azaspiro[4.5]decan-8-yl)-3-(3-chloro-2-(dimethylamino)pyridin-4-yl)-5-methyl-1,5-dihydro-4H-pyrazolo[3,4-d]pyrimidin-4-one], 22 nM. The same measure, in the same setting: with `Cn1c(N2CCC3(CC2)COC[C@H]3N)nc2[nH]nc(-c3ccncc3)c2c1=O` [Example 69, (S)-6-(4-amino-2-oxa-8-azaspiro[4.5]decan-8-yl)-5-methyl-3-(pyridin-4-yl)-1,5-dihydro-4H-pyrazolo[3,4-d]pyrimidin-4-one] the figure was 39 nM; with `Cn1c(N2CCC3(CC2)C[C@H](F)C[C@H]3N)nc2[nH]nc(-c3ccnc(N)c3Cl)c2c1=O` [Example 37, 3-(2-amino-3-chloropyridin-4-yl)-6-((1R,3S)-1-amino-3-fluoro-8-azaspiro[4.5]decan-8-yl)-5-methyl-1,5-dihydro-4H-pyrazolo[3,4-d]pyrimidin-4-one], 27 nM; with `Cn1c(N2CCC3(CC2)C[C@@H](C(F)(F)F)C[C@H]3N)nc2[nH]nc(-c3ccncc3)c2c1=O` [Example 54, 6-((1R,3R)-1-amino-3-(trifluoromethyl)-8-azaspiro[4.5]decan-8-yl)-5-methyl-3-(pyridin-4-yl)-1,5-dihydro-4H-pyrazolo[3,4-d]pyrimidin-4-one], 21 nM. Turning to `COc1ccc(-c2n[nH]c3nc(N4CCC5(CC4)CO[C@@H](C)[C@H]5N)n(C)c(=O)c23)cc1F` [Example 59, 6-((3S,4S)-4-amino-3-methyl-2-oxa-8-azaspiro[4.5]decan-8-yl)-3-(3-fluoro-4-methoxyphenyl)-5-methyl-1,5-dihydro-4H-pyrazolo[3,4-d]pyrimidin-4-one], the IC50 was determined as 13 nM. On the same count and under the same terms, next, `C[C@@H]1OCC2(CCN(c3nc4[nH]nc(-c5ccc6c(c5)CCO6)c4c(=O)n3C)CC2)[C@@H]1N` [Example 56, 6-((3S,4S)-4-amino-3-methyl-2-oxa-8-azaspiro[4.5]decan-8-yl)-3-(2,3-dihydrobenzofuran-5-yl)-5-methyl-1,5-dihydro-4H-pyrazolo[3,4-d]pyrimidin-4-one]: 95 nM; `C[C@@H]1OCC2(CCN(c3nc4[nH]nc(-c5cc(N)ncc5Cl)c4c(=O)n3C)CC2)[C@@H]1N` [Example 80, 6-((3S,4S)-4-amino-3-methyl-2-oxa-8-azaspiro[4.5]decan-8-yl)-3-(2-amino-5-chloropyridin-4-yl)-5-methyl-1,5-dihydro-4H-pyrazolo[3,4-d]pyrimidin-4-one]: 129 nM.
